Where two headings read alike, the source gives them in different places.
Legend:
[1] = parameters: method as in Torres-Palazzolo et al. (2018); details: ref Torres-Palazzolo et al. (2018); cited from earlier work
[2] = cited from earlier work
[3] = IAM-HPLC chromatographic capacity factor (log k' IAM); format: physicochemical; details: IAM.PC.MG 12 µm column; isocratic ACN/0.035 M phosphate buffer pH 6.8 (30:70 v/v), 0.5 ml/min; k'=(Tr–T0)/T0; mean of 2–4 determinations
Description: Chromatographic analysis was performed using a Shimadzu LC 20A chromatograph coupled to a diode array detector, operated at a range of 210–260 nm, depending on the analyzed compound. A biomimetic commercially available column was used in all experiments: IAM. PC.MG12 µm (150 × 4.6 mm) was purchased from Regis Chemical Company (Morton Grove, IL).
OSC separation conditions under IAM-HPLC were adapted from [Luco et al. (2003]) and [Barbato et al. (1998]), with modifications. The chromatographic mode consisted in an isocratic elution used as the mobile phase ACN/0.035 M phosphate buffer −pH 6.8− (30:70 (v/v)) at 0.5 ml min^−1. The column dead time (T0) was estimated by ascorbic acid retention time which was measured at 210 nm. The obtained retention data were used to calculate the chromatographic parameter corresponding to the capacity factor k’ as follows: k’ = (Tr–T0)/T0. All capacity factors given represent the mean of 2–4 determinations of each sample solution.
For this study, we considered 28 phytochemical compounds containing sulfur-based groups. […] Most of these compounds are garlic-derived substances with bioactive functions. […] We chose them because of their bioactive functionality and their similar metabolism within the plants and human body. Each analytical standard stock solution was prepared in the mobile phase at concentrations ranging from 100 to 800 µg ml^−1, depending on the solubility of the compound and their DAD detector response. Peak identification in samples was carried out by comparing retention times with reference standards.

[4] = parameters: method as in Egen-Schwind et al., 1992; details: ref Egen-Schwind et al., 1992, cited from earlier work; for lipophilicity (relative, in words): 1,3- vs 1,2-vinyldithiin; for elimination / tissue accumulation: serum, kidney, fat tissue

Compound	Log (k'IAM) [3]	also measured
C=CCS[S+]([O-])CC=C (stereo not drawn) [Allicin, diallyl thiosulfinate]	−0.409	permeation through the intestine [1]: less than 5%; cellular permeability (in words) ([2]; ref Rahman, 2007): can easily permeate cell membranes of phospholipids bilayers; metabolism (in words) ([2]; ref Rahman, 2007): rapidly metabolized and transformed into other active compounds
C=CCSSSCC=C [Diallyl Trisulfide, diallyl trisulfide]	0.781	cellular permeability (in words) ([2]; not told): high cellular permeability
S-allyl-L-cysteine	−1.102	cellular permeability (in words) ([2]; ref Rahman, 2007): high cellular permeability
CCCSSCCC [Propyl disulfide]	0.913	
C=CCN=C=S [Allyl isothiocyanate]	0.118	
C=CCSSCC=C [Diallyl disulfide, diallyl disulfide]	0.554	cellular permeability (in words) ([2]; ref Rahman, 2007): high cellular permeability
S=C=NCc1ccccc1 [Benzyl isothiocyanate]	0.571	
S-propyl-L-cysteine	−1.645	
C=CCSCC=C [Diallyl sulfide, diallyl sulfide]	0.222	permeation through the intestine [1]: less than 5%
C=CCS [Allyl mercaptan]	−0.197	
c1coc(CSSCc2ccco2)c1 [Furfuryl disulfide, furfuryl disulfide]	0.713	
CCSCC [Ethyl sulfide]	−0.099	
CCSSCC [Ethyl disulfide]	0.420	
C=CCSS/C=C\C[S+]([O-])CC=C (stereo not drawn) [Z-Ajoene]	0.015	
S=C=Nc1ccccc1 [Phenyl isothiocyanate]	0.746	
C=CCSC [Allyl methyl sulfide, allyl methyl sulfide]	−1.021	
C[S+]([O-])C[C@H](N)C(=O)O (single isomer, unassigned; (+)) [Methiin, (+)-S-methyl-L-cysteine sulfoxide]	−1.922	
CC=C[S+]([O-])C[C@H](N)C(=O)O (stereo in doubt) [Isoalliin, (+)-S-trans-1-propenyl-L-cysteine sulfoxide]	−0.734	
C=CC1CC=CSS1 (stereo not drawn) [1,2-vinyldithiin]		lipophilicity (relative, in words) [4]: more lipophilic; elimination / tissue accumulation [4]: showed a tendency to accumulate in fat tissues
C[S+]([O-])/C=C/CCN=C=S (stereo not drawn) [Sulforaphene, S-sulforaphene]	−0.521	
S-methyl-L-cysteine	−1.322	
S=C=NCCc1ccccc1 [Phenethyl isothiocyanate]	0.663	
C=CC1SC=CCS1 (stereo not drawn) [2-vinyldithiin, 2-Vinyl-4H-1,3-dithiine]	0.237	permeation through the intestine [1]: less than 5%; lipophilicity (relative, in words) [4]: less lipophilic; elimination / tissue accumulation [4]: rapidly eliminated from serum, the kidney, and fat tissue
CCCSSSC [Methyl Propyl Trisulfide]	0.810	
C=CCSS/C=C/C[S+]([O-])CC=C (stereo not drawn) [E-Ajoene]	0.022	
CSSC [Dimethyl disulfide, dimethyl disulfide]	−0.017	
C[S+]([O-])CCCCN=C=S (stereo not drawn) [Sulforaphane, sulforaphane]	−0.514	
OCc1c[nH]c2ccccc12 [Indole-3-carbinol, indole-3-carbinol]	−0.204	
